How the values were obtained:
pVHL30 [1] = target: T1, pVHL30 (Homo sapiens, UniProt P40337); experiment: Co-treatment / competition experiments on CM11-induced pVHL30 degradation in HeLa cells; type: cell-based; set-up: endogenous in cells; host or cells: HeLa; conditions: CM11 1 µM 4 h
Description: ML4924 and MG132 co-treatment. Cells were transferred in six-well plates with 5 × 10^5 cells per well in 2 ml media in order to achieve 80% confluence the day after. At t = 0, MLN4924 was added into the desired wells at 3 μM final concentration and 0.1% v/v of DMSO. DMSO (0.1% v/v final conc.) was added to the remaining wells in order to match identical conc. of vehicle in all wells. At t = 3 h, MG 132 was added into the desired wells at 50 μM final conc. and 0.1% v/v of DMSO. DMSO (0.1% v/v final conc.) was added to the remaining wells in order to achieve the same conc. of vehicle in all the wells. […] DMSO (0.1% v/v final conc.) was added to the remaining wells to obtain the same conc. of vehicle in all the wells. The total final concentration of DMSO was therefore 0.3% v/v. Plates were incubated for 4 h at 37 °C and 5% CO2 before harvesting. […] Plates were incubated for the desired time at 37 °C and 5% CO2 before harvesting.
Immunoblotting. Cells were lysed in lysis buffer (20 mM Tris pH 8, 150 mM NaCl, 1% Triton × 100) and a protease inhibitor cocktail (Roche) per 10 ml buffer. For protein extracts, the dishes were placed on ice. The media was aspirated and the tissue layer washed twice with ice-cold phosphate buffer saline (PBS). Lysis buffer (120 μl) was added and the cells detached from the surface with a cell scraper. After removal of the insoluble fraction by centrifugation, the protein concentration of the supernatant was determined by Pierce™ Coomassie (Bradford) Protein Assay Kit. Protein extracts were fractionated by SDS-PAGE on 4–12% Tris-Acetate NuPage® Novex® (Life Technologies) polyacrylamide gels and transferred to a nitrocellulose membrane using wet transfer. The membrane was then blocked with 5 % w/v Bovine serum albumin (BSA) in Tris-buffered saline (TBS) with 0.1% w/v Tween-20. For detecting proteins the following primary antibodies in the given concentrations were used: anti-β-Actin (Cell Signaling Technology, 4970S, 13E5) 1:2000, anti-VHL (Cell Signaling Technology, #68547) 1:1000, anti-Hif-1α (BD Biosciences, 610959, clone 54) 1:1,000, anti-hydroxy-HIF-1α (Hyp564) (Cell Signaling Techonology; #3434) 1:1,000, anti-PHD2 (Bethyl Laboratories; A300-322A) 1:1,000, anti-PHD3 (Bethyl Laboratories; A300-327A) 1:1000, anti-CRBN (Proteintech; 11435-1-AP) 1:1,000. Following incubation with a horseradish peroxidase-conjugated secondary antibody (Cell Signaling Technology), the signal was developed using enhanced chemiluminescence (ECL) Western Blotting Detection Kit (Amersham) on Amersham Hyperfilm ECL film (Amersham). Band quantification was performed using ImageJ software and reported as relative amount as ratio of the each protein band relative to the lane’s loading control. The values obtained were then normalized to 0.1% DMSO vehicle control. […]
Target sequence in this assay (P40337 whole entry): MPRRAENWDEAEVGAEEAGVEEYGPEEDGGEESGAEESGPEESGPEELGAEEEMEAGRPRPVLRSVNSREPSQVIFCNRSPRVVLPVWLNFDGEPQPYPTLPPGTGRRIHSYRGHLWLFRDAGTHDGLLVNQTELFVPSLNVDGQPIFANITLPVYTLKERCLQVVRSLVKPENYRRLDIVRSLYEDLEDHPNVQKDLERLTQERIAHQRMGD

pVHL30 [2] = target: T1, pVHL30; experiment: Isothermal titration calorimetry (ITC) against VCB complex with long VHL isoform (V30CB); type: binding; set-up: N-terminally His6-tagged VHL (1–213), ElonginC (17–112) and ElonginB (1–104) were co-expressed; His6 (N, cleaved yes); made in house; host or cells: Escherichia coli BL21(DE3)
Description: Protein expression and purification. Human proteins VHL (UniProt accession number: P40337), ElonginC (Q15369), and ElonginB (Q15370) were used for all protein expression. The short-isoform-containing VCB complex (V19CB) was expressed, purified and stored as described previously. For expression of the long-isoform-containing VCB complex (V30CB), N-terminally His6-tagged VHL (1–213), ElonginC (17–112) and ElonginB (1–104) were co-expressed in Escherichia coli BL21(DE3) at 20 °C for 18 h using 0.5 mM isopropyl β-D-1-thiogalactopyranoside (IPTG). E. coli cells were resuspended in binding buffer (50 mM HEPES, pH 8.0, 500 mM NaCl, 10 mM imidazole and 5 mM β-mercaptoethanol), lysed using a pressure cell homogenizer (Stansted Fluid Power), and lysate clarified by centrifugation. The supernatant was loaded onto a HisTrap FF affinity column (GE Healthcare) equilibrated with binding buffer, and bound protein was eluted using an imidazole gradient. The His6 tag was removed using thrombin protease (Sigma), and the untagged complex was dialyzed into binding buffer. V30CB was then loaded onto the HisTrap FF column a second time, allowing impurities to bind as the complex eluted without binding. The flow-through was dialyzed using a low-salt buffer (20 mM HEPES, pH 8.0, 25 mM NaCl and 1 mM DTT) and then loaded onto a Resource Q anion exchange column (GE Healthcare); bound protein was eluted across a linear NaCl gradient. V30CB was then additionally purified by size-exclusion chromatography using a Superdex-75 16/600 column (GE Healthcare) equilibrated with 20 mM HEPES, pH 7.5, 100 mM sodium chloride and 1 mM TCEP. All chromatography purification steps were performed using Äkta FPLC purification systems (GE Healthcare).
Isothermal titration calorimetry (ITC). Titrations were performed on an ITC200 micro-calorimeter (GE Healthcare). […] The final DMSO concentration was 0.15% v/v. VCB protein experiments were carried out in a buffer containing 20 mM Bis-tris propane, 150 mM NaCl, 1 mM TCEP, 0.15% v/v DMSO, pH 7.4. The titrations consisted of 19 injections of 2 µL compounds solution (150 µM, in the syringe) at a rate of 0.5 µl s^−1 at 120 s time intervals into the VCB protein solution (20 µM, in the cell). An initial injection of compound solution (0.4 µL) was made and discarded during data analysis. All experiments were performed at 25 °C, whilst stirring the syringe at 600 rpm. The data were fitted to a single binding site model to obtain the stoichiometry n, the dissociation constant K d and the enthalpy of binding ΔH using the Microcal LLC ITC200 Origin software provided by the manufacturer.
Target sequence in this assay (P40337 whole entry): as above
Target sequence in this assay (Q15369 17-112 partner limits assumed): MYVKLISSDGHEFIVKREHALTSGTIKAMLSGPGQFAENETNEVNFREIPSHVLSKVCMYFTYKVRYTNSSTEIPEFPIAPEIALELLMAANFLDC
Target sequence in this assay (Q15370 1-104 partner limits assumed): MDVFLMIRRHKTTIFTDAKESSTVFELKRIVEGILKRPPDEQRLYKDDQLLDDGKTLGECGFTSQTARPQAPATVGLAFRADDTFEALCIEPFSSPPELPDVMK

CM11 activity after pre-treatment with IOX4 (pVHL30 [1]; IOX4 50 µM): did not impact CM11 activity | CM11-induced degradation of pVHL30 after pre-treatment with MG132 (pVHL30 [1]; MG132 50 µM): completely abrogated | CM11-induced degradation after pre-treatment with MLN4924 (pVHL30 [1]; MLN4924 3 µM): prevented | CM11-induced pVHL degradation after pre-treatment with VH032 (pVHL30 [1]; VH032 150 µM for 30 min): blocked pVHL degradation | ΔG (pVHL30 [2]; 25 °C, pVHL30): –10.4 ± 0.1 kcal mol^−1 | ΔH (pVHL30 [2]; 25 °C, pVHL30): –11.3 ± 0.1 kcal mol^−1 | Kd (pVHL30 [2]; 25 °C, pVHL30 (V30CB)): 25 ± 3 nM | n (pVHL30 [2]; 25 °C, stoichiometry of binding, pVHL30 (V30CB)): 0.866 ± 0.003 | α (pVHL30 [2]; avidity / cooperativity, pVHL30): 7.5
Compound: Cc1ncsc1-c1ccc(CNC(=O)[C@@H]2C[C@@H](O)CN2C(=O)[C@@H](NC(=O)COCCOCCOCCOCCOCCOCC(=O)N[C@H](C(=O)N2C[C@H](O)C[C@H]2C(=O)NCc2ccc(-c3scnc3C)cc2)C(C)(C)C)C(C)(C)C)cc1 [CM11, N ^1 ,N ^20-bis((S)-1-((2S,4R)-4-hydroxy-2-((4-(4-methylthiazol-5-yl)benzyl)carbamoyl)pyrrolidin-1-yl)-3,3-dimethyl-1-oxobutan-2-yl)-3,6,9,12,15,18-hexaoxaicosanediamide]

Reference: PMC5635026, “Homo-PROTACs: bivalent small-molecule dimerizers of the VHL E3 ubiquitin ligase to induce self-degradation” (Nature Communications, 2017)
